In patent publication US8486957B2, “Chemotherapeutic for inducing an MSH2-dependent apoptotic pathway” (Wake Forest University Health Sciences, priority 2007, dated 2013):
Where two headings read alike, the source gives them in different places.

Experiments:
[1] = tested on: MSH2-deficient HEC59 cells; assay: Cell viability (MTS) assay, MSH2-deficient cells; type: cell-based, human; details: for IC50 / MSH2 dependence of cell death response (words): 24 h exposure; for Fold difference: IC50 MSH2-deficient vs MSH2-proficient cells, 24 h; for MSH2 dependence of cell death response (words): MSH2-deficient vs -proficient cells; for induction of cell death: MSH2-deficient cells
Description: (§1) Cells proficient and deficient in MSH2 were exposed to increasing concentrations of the drugs and cell survival determined in an MTS assay. This assay is based on the mitochondrial activity of living cells that reduces the tetrazolium product (MTS) into a formazan product that can be spectrophotometrically analyzed at OD490.
(§2) Cell Viability assays. HEC59 cells and their isogenic counterpart with chromosome 2 transfer were grown in standard growth media of DMEM-F12+10% FBS. Cells were plated in 96 well plates at an appropriate concentration in 100 μl media and incubated overnight. Media was replaced with fresh media containing drug and allowed to incubate for 24 hrs at indicated concentrations. Untreated cells received fresh media containing 0.1% DMSO. One solution reagent (CellTiter 96(r) AQueous One Solution) is added to existing media (20 μl/well) and allowed to incubate 3-4 hrs. A plate reader was used to record the absorbance at 490 nm.
(§3) The CellTiter 96® AQueous One Solution Cell Proliferation Assay® is a colorimetric method for determining the number of viable cells in proliferation, cytotoxicity or chemosensitivity assays. The CellTiter 96® AQueous One Solution Reagent contains a tetrazolium compound [3-(4,5-dimethylthiazol-2-yl)-5-(3-carboxymethoxyphenyl)-2-(4-sulfophenyl)-2H-tetrazolium, inner salt; MTS] and an electron coupling reagent (phenazine ethosulfate; PES). PES has enhanced chemical stability, which allows it to be combined with MTS to form a stable solution. The quantity of formazan product as measured by the amount of 490 nm absorbance is directly proportional to the number of living cells in culture.
(§4) Dose-dependent response to nineteen increasing concentrations of the respective compound was determined, and analyzed for IC50 values using GraphPad Prism 4™. Each compound was analyzed in triplicates.

[2] = tested on: MSH2-proficient HEC59 cells with chromosome 2 transfer (HEC59 chr.2); assay: Cell viability (MTS) assay, MSH2-proficient cells; type: cell-based, human; details: for IC50: 24 h exposure; for induction of cell death: MSH2-proficient cells
Description: as §1, §2, §3, §4

[3] = tested on: MSH2-deficient HEC59 cells; details: 48-72 hours after first exposure; cited from earlier work
A2780 cells = assay: MTS assay, platinum sensitive ovarian cancer cells; type: cell-based; details: for cell killing: 10 uM cisplatin, 20 uM rescinnamine, lisinopril
Description: (§5) A2780 is a cisplatinum-sensitive ovarian cancer cell line, […] its isogenic, but cisplatinum-resistant counterpart. Shown are average and standard deviations of a minimum of 3 individual experiments. Results were normalized to the untreated control. FIG. 5: MTS assays of platinum sensitive (A2780) and resistant (A2780cis) cells in the presence of 10 uM cisplatinum and increasing concentrations of rescinnamine. FIG. 6: MTS assay of A2780 and A2780cis ovarian cancer cells, untreated, treated with 10 uM cisplatin, 20 uM rescinnamine and lisinopril.

A2780cis cells = assay: MTS assay, platinum resistant ovarian cancer cells; type: cell-based; details: for cell killing: 10 uM cisplatin, 20 uM rescinnamine, lisinopril
Description: as §5

RKO oxa cells = assay: MTS assay, oxaliplatin insensitive colorectal cancer cells; type: cell-based
Text: FIG. 7: MTS assay of colorectal cancer cells sensitive (RKO) and insensitive (RKO oxa) to oxaliplatin, treated with oxaliplatin, rescinnamine and combination.

[4] = tested on: MSH2/6-dependent cell death; assay: Caspase-3-dependent cell death assay; type: cell-based
[5] = Homo sapiens, MTS, read-out: IC50 MSH2-deficient
[6] = Homo sapiens, read-out: IC50 in MSH2-deficient cells
[7] = Homo sapiens, MTS, read-out: IC50 MSH2-proficient
[8] = Homo sapiens, read-out: IC50 in MSH2-proficient cells
[9] = in the presence of 10 uM cisplatinum

| Molecule | IC50 [1, 5] [µM] | Fold difference [1] | MSH2 dependence of cell death response (words) [1] | IC50 [2, 7] [µM] | IC50 [2, 8] [µM] | also measured |
| --- | --- | --- | --- | --- | --- | --- |
| COC(=O)[C@H]1[C@H]2C[C@@H]3c4[nH]c5cc(OC)ccc5c4CCN3C[C@H]2C[C@@H](OC(=O)c2ccc(OC)c(OC)c2)[C@@H]1OC [3,4-dimethoxy benzoyl, 3,4-Dimethoxybenzoyl reserpine] | 85 | 1.3 | significant MSH2-dependent cell death response | 66 | 66 | IC50 [1, 6]: 85 µM |
| COC(=O)[C@H]1[C@H]2C[C@@H]3c4[nH]c5cc(OC)ccc5c4CCN3C[C@H]2C[C@@H](OC(=O)c2cc(OC)cc(OC)c2)[C@@H]1OC [3,5-dimethoxy benzoyl, 3,5-Dimethoxybenzoyl reserpine] | 36 | 0.95 | – | 38 | – | – |
| COC(=O)[C@H]1[C@H]2C[C@@H]3c4[nH]c5cc(OC)ccc5c4CCN3C[C@H]2C[C@@H](OC(=O)c2cccc(OC)c2)[C@@H]1OC [3-methoxy benzoyl, 3-Methoxybenzoyl reserpine] | 83 | 0.94 | – | 88 | – | – |
| COC(=O)[C@H]1[C@H]2C[C@@H]3c4[nH]c5cc(OC)ccc5c4CCN3C[C@H]2C[C@@H](OC(=O)c2ccc(OC)cc2)[C@@H]1OC [4-methoxy benzoyl, 4-Methoxybenzoyl reserpine] | 68 | 1.01 | – | 67 | – | – |
| COC(=O)[C@H]1[C@H]2C[C@@H]3c4[nH]c5cc(OC)ccc5c4CCN3C[C@H]2C[C@@H](OC(=O)c2ccccc2)[C@@H]1OC [MJG-6-41, Benzoyl resperine] | 110 | 0.83 | – | 132 | – | – |
| COC(=O)[C@H]1[C@H]2C[C@@H]3c4[nH]c5cc(OC)ccc5c4CCN3C[C@H]2C[C@@H](O)[C@@H]1OC [Methyl Reserpate, Methyl reserpate] | – | – | no preference for either cell line | – | – | induction of cell death [1]: only weakly induces cell death; induction of cell death [2]: only weakly induces cell death |
| COC(=O)[C@H]1[C@H]2C[C@@H]3c4[nH]c5cc(OC)ccc5c4CCN3C[C@H]2C[C@@H](OC(=O)/C=C/c2ccccc2)[C@@H]1OC [cinnamoyl reserpine, Cinnamyl reserpine] | 150 | 1.2 | independent of functional MSH2 | 130 | 130 | IC50 [1, 6]: 150 µM |
| N.N.[Cl][Pt][Cl] [cisplatin] | – | 1.6 | only a weak difference | – | – | IC50 ([1]; MTS, read-out: IC50 MSH2-deficient): 75 µM; IC50 ([2]; MTS, read-out: IC50 MSH2-proficient): 47 µM; increase in resistance in MSH2-deficient cells, late response [3]: two- to four-fold increase in resistance |
| COC(=O)[C@H]1[C@H]2C[C@@H]3c4[nH]c5ccccc5c4CCN3C[C@H]2C[C@@H](OC(=O)c2cc(OC)c(OC)c(OC)c2)[C@@H]1OC [deserpidine] | 59 | 1.2 | no significant specificity for the presence of MSH2 | 48 | 49 | IC50 [1, 6]: 56 µM |
| NCCCC[C@H](N[C@@H](CCc1ccccc1)C(=O)O)C(=O)N1CCC[C@H]1C(=O)O [lisinopril] | – | – | – | – | – | cell killing (A2780 cells): does not show the same effect; cell killing (A2780cis cells): does not show the same effect |
| COC(=O)[C@H]1[C@H]2C[C@@H]3c4[nH]c5cc(OC)ccc5c4CCN3C[C@H]2C[C@@H](OC(=O)c2ccc3c(c2)OCO3)[C@@H]1OC [methylendioxy-benzoyl, 3,4-Methylenedioxy benzoyl reserpine] | 36 | 0.71 | MSH2-deficient cells show a higher sensitivity | 51 | 51 | IC50 [1, 6]: 36 µM |
| COC(=O)[C@H]1[C@H]2C[C@@H]3c4[nH]c5cc(OC)ccc5c4CCN3C[C@H]2C[C@@H](OC(=O)/C=C/c2cc(OC)c(OC)c(OC)c2)[C@@H]1OC [rescinnamine] | 87 | 2.6 | robust MSH2-dependent cell death response | 39 | 39 | MSH2-dependent induction of cell death relative to reserpine [2]: roughly 2 fold; cell killing (A2780 cells): more effective in sensitive ovarian cancer cells than cisplatinum; cell death with increasing concentrations of rescinnamine (A2780 cells; [9]): concentration-dependent, significant cell death; cell killing (A2780cis cells): overcoming cisplatinum resistance; cell death with increasing concentrations of rescinnamine (A2780cis cells; [9]): concentration-dependent, significant cell death; overcoming oxaliplatin resistance (RKO oxa cells): overcomes oxaliplatin resistance, albeit not to the same extent as cisplatinum resistance; induction of MSH2/6-dependent cell death [4]: induces the targeted, MSH2/6-dependent cell death |
| COC(=O)[C@H]1[C@H]2C[C@@H]3c4[nH]c5cc(OC)ccc5c4CCN3C[C@H]2C[C@@H](OC(=O)c2cc(OC)c(OC)c(OC)c2)[C@@H]1OC [reserpine] | 93 | 1.5 | robust MSH2-dependent cell death response | 61 | 61 | MSH2 dependence of cell death response (words) ([1]; listed as Reserpine): significant increase in resistance |
| Evodiamine | – | – | – | – | – | induction of cell death [1]: no significant cytotoxic effect; induction of cell death [2]: no significant cytotoxic effect |
